Series [1] deals with T1, MOR (Homo sapiens, UniProt P35372). Nature of the series: cell-based. Type of series: cell-based. More on the design: expressed in transfected cells; host or cells: CHO-hMOR (membrane variant); SH-SY5Y-hMOR also named. As to the method: Four thousand cells per well were split into 384-well low-volume plate (VWR) with Opti-MEM (Invitrogen) supplemented with 1% FBS for 3 hours at 37° C. except SH-SY5Y-hMOR cells, which were plated for 1 hour at 37° C. Cells were then treated with drugs, […] forskolin for 30 min at room temperature.
T1 sequence (P35372 whole entry): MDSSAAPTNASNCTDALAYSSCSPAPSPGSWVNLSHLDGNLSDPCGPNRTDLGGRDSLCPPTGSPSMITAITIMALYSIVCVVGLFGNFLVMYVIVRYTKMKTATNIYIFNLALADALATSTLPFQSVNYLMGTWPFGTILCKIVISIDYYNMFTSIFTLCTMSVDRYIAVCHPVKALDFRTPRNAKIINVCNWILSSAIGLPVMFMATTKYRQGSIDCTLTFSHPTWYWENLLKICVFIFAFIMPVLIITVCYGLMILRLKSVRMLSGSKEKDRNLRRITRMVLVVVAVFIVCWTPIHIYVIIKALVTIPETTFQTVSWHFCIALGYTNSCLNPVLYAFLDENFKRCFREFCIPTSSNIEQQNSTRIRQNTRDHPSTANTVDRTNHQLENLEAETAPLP
Cells were then homogenized by a Dounce homogenizer 15 times in an ice-cold buffer [50 mM Hepes (pH 7.4)], followed by centrifugation at 500 g at 4° C. for 5 min. The supernatant was transferred to a 1.5-ml tube on ice, and the pellet was resuspended, homogenized, and centrifuged at 500 g at 4° C. for 5 min. Then, the supernatant was combined and spun at 20,000 g at 4° C. for 10 min. The membrane pellet was resuspended in an ice-cold buffer [50 mM Hepes (pH 7.4)] at concentrations of […]. Membranes were stored at −80° C. until use. For forskolin-stimulated cAMP accumulation assay, membranes were diluted in an assay buffer (50 mM Hepes, 10 mM MgCl2, 100 mM NaCl, 200 mM adenosine 5′-triphosphate, 10 mM GTP, 100 mM 3-isobutyl-1-methylxanthine, 20 mM forskolin, and 30 mM bovine serum albumin) and plated at […] of protein in each well. Membranes were treated with test compounds for 30 min at room temperature. The cAMP levels were determined as per the manufacturer's instructions (Cisbio cAMP HiRange assay).

The target of series [2] is T1, MOR. Nature of the series: cell-based. In kind it is cell-based. The arrangement: host or cells: U2OS-β-arrestin2-EFC-hMOR. Particulars: for Emax: read-out: MOR Mediated B-arrestin Recruitment (% Control, Emax DAMGO). As for the experimental part: The PathHunter β-arrestin assay. The assay was performed according to the manufacturer's protocol (DiscoveRx) and as described previously. Briefly, 5000 U2OS-β-arrestin2-EFC-hMOR cells were plated in 384-well white plates with Opti-MEM media (Invitrogen) containing 1% FBS±pertussis toxin (100 ng/ml) overnight. The next day, cells were treated with compounds for 90 min at 37° C., followed by a 1-hour incubation of detection reagent at room temperature. Luminescence values were determined by using a Synergy HT luminometer (BioTek).
A general note: Activated receptors often draw arrestin, which recruitment assays turn into a signal.

In series [3] the target is T1, MOR. In kind it is cell-based. The arrangement: expressed in transfected cells; host or cells: CHO-hMOR (membrane variant); SH-SY5Y-hMOR also named.
In series [4] the test system is δ and μ opioid receptors. Nature of the series: In vitro potency ratio at δ and μ opioid receptors. Type of series: cell-based.
Series [5] concerns Male Swiss-Webster mice. The series is described as follows: Respiration rate and arterial oxygen saturation (MouseOx pulse oximeter) in conscious mice. Particulars: for respiratory depression in mice: equi-analgesic dose range of morphine. As to the method: Measurement of respiration rate and arterial oxygen saturation. […] They were housed (five in a cage) in a temperature-controlled environment with a 12-hour light-dark cycle and were supplied with food and water ad libitum. Mice were acclimated for a week in the central animal facility before behavioral testing. On the day of the experiment, mice were brought to the room and acclimated for 45-60 min in the observation boxes. Respiration and oxygen saturation (SpO2) were measured using MouseOx Plus Rat and Mouse Pulse Oximeter (Starr Life Sciences Corp, Oakmont, USA) in conscious, freely moving animals. […] Mice were then placed into observation boxes and recording was started 5 min later to eliminate any anesthesia effect.
Data are expressed as mean±standard error of the mean (S.E.M.), and p<0.05 was accepted as statistically significant. GraphPad Prism, version 7, was used for data analysis.

Series [6] concerns the target T1, MOR. More on the design: host or cells: U2OS-β-arrestin2-EFC-hMOR. Conditions: cited from earlier work.
[7] abbreviates: Table 3, inhibition of forskolin-induced cAMP accumulation, read-out: MOR cAMP Agonist Potency ± SEM.
Setting [8] is: Table 3, read-out: MOR Mediated B-arrestin Recruitment.
Setting [9] is: Table 3, read-out: MOR cAMP Agonist (% Efficacy) (converted).
The mark [10] stands for this setting: Table 2, inhibition of forskolin-induced cAMP accumulation, read-out: MOR cAMP Agonist Potency ± SEM.
Where [11] appears, read: Table 2, read-out: MOR cAMP Agonist (% Efficacy) (converted).
The mark [12] stands for this setting: Table 2, read-out: MOR Mediated B-arrestin Recruitment.
Where [13] appears, read: Table 4, read-out: MOR cAMP Agonist Potency ± SEM.

Like-named read-outs stand apart in the source and are kept apart here.

For the compound `C[C@@H]1[C@@H]2CCC[C@@]1(c1cccc(O)c1)CCN2CCc1ccccc1` (single isomer, unassigned) [(−)-48], the figures for the EC50 in series [1] (setting [7]) and in series [2] (setting [8]) were 12.1 ± 4.01 nM and over 25000 nM, respectively.
In the case of `C[C@@H]1C2CCC[C@@]1(c1cccc(O)c1)CCN2CCc1ccccc1` (single isomer, unassigned; (-)) [(−)-48], the Emax in series [1] (setting [9]) was 71%.
On to `OC[C@@H]1CC[C@@]2(c3cccc(O)c3)CCN(CCc3ccccc3)[C@H]1C2` (stereo in doubt) [Compound 35, 3-(8-(Hydroxymethyl)-2-phenethyl-2-azabicyclo[3.3.1]nonan-5-yl)phenol], for which, in series [3] (Table 2), the “Bias Factor” value amounted to 1254. Further, the EC50 is 3.07 ± 2.2 nM in series [1] (setting [10]) and over 25000 nM in series [2] (setting [12]). The Emax in series [1] (setting [11]) is 10.9%.
On to `Oc1cccc([C@]23CCC[C@H]([C@H]2O)N(C[C@H]2C[C@@H]2c2ccccc2)CC3)c1` (stereo in doubt) [Compound 45, (1R,5S,9R)-5-(3-hydroxyphenyl)-2-((trans-2-phenylcyclopropyl)methyl)-2-azabicyclo[3.3.1]nonan-9-ol], for which the “Bias Factor” value in series [3] is recorded as 6.1. For the same compound, the EC50 is 0.12 nM in series [1] and 22 nM in series [2]. The Emax in series [1] (read-out: MOR cAMP Agonist (% Efficacy)) is 100%; in series [2], 22%.
With `Oc1cccc(C23CCC[C@H]([C@H]2O)N(C/C=C/c2ccccc2)CC3)c1` (stereo in doubt) [Compound 52, (1R,5R,9S)-2-Cinnamyl-5-(3-hydroxyphenyl)-2-azabicyclo[3.3.1]nonan-9-ol], the “Bias Factor” value in series [3] (Table 3) was 27.120. Besides, the Emax in series [1] (setting [9]) is 100%.
As for `C[C@H]1[C@H]2CCC[C@@]1(c1cccc(O)c1)CCN2CCc1ccccc1` [(+)-48], in series [3] (Table 3), the “Bias Factor” value is 6.7. Further, the EC50 in series [1] (setting [7]) came to 0.4 ± 0.12 nM; in series [2] (setting [8]) it was 7.72 ± 4.6 nM. For the same compound, the Emax is 91% in series [1] (setting [9]) and 1.8% in series [2] (Table 3).
Consider `C[C@@H]1[C@@H]2CCC[C@@]1(c1cccc(O)c1)CCN2CCc1ccccc1` [(−)-48], for which, in series [3] (Table 3), the “Bias Factor” value is listed as 2056.
Consider `CCC[C@H]1[C@@H]2CCC[C@@]1(c1cccc(O)c1)CCN2CCc1ccccc1` [Compound 15, 3-(2-Phenethyl-9-propyl-2-azabicyclo[3.3.1]nonan-5-yl)phenol], for which the “Bias Factor” value in series [3] (Table 2) is listed as 23,442. In addition, the EC50 in series [1] (setting [10]) amounted to 0.95 ± 0.35 nM. Moreover, in series [1] (setting [11]), the Emax was 63.3%.
Turning to `CCOC(=O)/C=C1\[C@H]2CCC[C@]1(c1cccc(O)c1)CCN2CCc1ccccc1` [Compound 26, Ethyl (Z)-2-(5-(3-hydroxyphenyl)-2-phenethyl-2-azabicyclo[3.3.1]nonan-9-ylidene)acetate], the “Bias Factor” value in series [3] (Table 2) is 179. Also, the Emax in series [1] (setting [11]) was 100%; in series [2] (Table 2) it was 22.2%.
Turning to `CCOC(=O)C[C@@H]1[C@H]2CCC[C@]1(c1cccc(O)c1)CCN2CCc1ccccc1` [Compound 27, Ethyl 2-(5-(3-hydroxyphenyl)-2-phenethyl-2-azabicyclo[3.3.1]nonan-9-yl)acetate], in series [3] (Table 2), the “Bias Factor” value is recorded as 6.7. The EC50 in series [1] (setting [10]) was 14.6 ± 3.99 nM; in series [2] (setting [12]), 175 ± 42.6 nM. Moreover, the Emax was 90.4% in series [1] (setting [11]) and 1.5% in series [2] (Table 2).
The corresponding values for `CCOC(=O)C[C@H]1[C@@H]2CCC[C@@]1(c1cccc(O)c1)CCN2CCc1ccccc1` [Compound 28, Ethyl 2-(5-(3-hydroxyphenyl)-2-phenethyl-2-azabicyclo[3.3.1]nonan-9-yl)acetate] are 4.8, 3.97 ± 1.8 nM, 58.8 ± 34.7 nM, 78% and 2.18%.
On to `OC/C=C/[C@H]1[C@@H]2CCC[C@@]1(c1cccc(O)c1)CCN2CCc1ccccc1` [Compound 37, 3-((1S,5R,9R)-9-((E)-3-Hydroxyprop-1-en-1-yl)-2-phenethyl-2-azabicyclo[3.3.1]nonan-5-yl)phenol], for which the “Bias Factor” value in series [3] (Table 2) is listed as 6794. In addition, the EC50 in series [1] (setting [10]) was 2.31 ± 0.78 nM. The Emax in series [1] (setting [11]) was 33.5%.
For the compound `Oc1cccc2c1O[C@H]1CN(CCc3ccccc3)[C@H]3CCC[C@@]21C3` [Compound 70, (3S,6aR,11aR)-2-Phenethyl-1,3,4,5,6,11a-hexahydro-2H-3,6a-methano-benzofuro[2,3-c]azocin-10-ol], the “Bias Factor” value in series [3] (Table 3) is on record as 21454. Further, the EC50 was 0.5 ± 0.24 nM in series [1] (setting [7]) and over 25000 nM in series [2] (setting [8]). Further, the Emax in series [1] (setting [9]) was 32.8%.
For `O=C1CCC2C3Cc4ccc(O)c5c4[C@@]2(CCN3CCc2ccc(Cl)cc2)[C@H]1O5` (stereo partly drawn) [Compound 71, 3-(4-Chlorophenethyl)-9-hydroxy-2,3,4,4a,5,6-hexahydro-1H-4,12-methanobenzofuro[3,2-e]isoquinolin-7(7aH)-one], the “Bias Factor” value in series [3] (Table 4) amounted to 0.82. Moreover, the Emax in series [1] (Table 4, read-out: MOR cAMP Agonist (% Efficacy) (converted)) was 98.8%; in series [2] (Table 4), 44.8%. The EC50 amounted to 0.05 ± 0.03 nM in series [1] (setting [13]) and 2.44 ± 0.45 nM in series [2] (Table 4, read-out: MOR Mediated B-arrestin Recruitment). Besides, the “δ/μ ratio (in vitro potency ratio at δ and μ opioid receptors)” value in series [4] is “approximately 1”. For the same compound, the “respiratory depression in mice” value in series [5] is “did not depress respiration”. For the same compound, the “effect on respiration rate (AUC 6 min to 45 min post injection) compared to saline” value in series [5] (mice, s.c., 0.01-0.1 mg/kg) is “no effect on respiration rate”.
In the case of `O=C1CCC2C3Cc4ccc(O)c5c4[C@@]2(CCN3CCc2ccc(Br)cc2)[C@H]1O5` (stereo partly drawn) [Compound 72, 3-(4-Bromophenethyl)-9-hydroxy-2,3,4,4a,5,6-hexahydro-1H-4,12-methanobenzofuro[3,2-e]isoquinolin-7(7aH)-one], in series [1] (setting [13]), the EC50 stood at 0.15 ± 0.04 nM. The “agonist character at the mu-receptor (in words)” value in series [1] (in vitro data) is on record as “potent μ agonist”. In series [4], the “δ/μ ratio (in vitro potency ratio at δ and μ opioid receptors)” value is “approximately 5”.
With `C[C@@H](NC(=O)[C@@H](N)Cc1ccc(O)cc1)C(=O)NCC(=O)N(C)[C@@H](Cc1ccccc1)C(=O)NCCO` [DAMGO, reference compound], the “Bias Factor” value in series [3] was 1.
Regarding `CN1CC[C@]23c4c5ccc(O)c4O[C@H]2[C@@H](O)C=C[C@H]3[C@H]1C5` [Morphine, reference compound], the “respiratory depression in mice” value in series [5] is “did repress respiration”.
In the case of `COc1ccsc1CNCC[C@@]1(c2ccccn2)CCOC2(CCCC2)C1` [TRV130], in series [6], the “beta-arrestin recruitment (in words), noted for known compound” value was “does recruit beta-arrestin slightly”.

These data come from patent US11352365B2, “Biased potent opioid-like agonists as improved medications to treat chronic and acute pain and methods of using the same” (THE UNITED STATES OF AMERICA, AS REPRESENTED BY THE …, priority 2018, dated 2022).
